Earlier results in patent publication US6670388B1, “Fatty acid synthase inhibitors” (SmithKline Beecham Corporation, priority 2000, dated 2003).

Key:
bacteria = conditions: in vivo and in vitro
[1] = tested on: all three condensing enzymes

Row | SMILES | inhibition of FabB & F (FabB & F) | antibacterial activity (bacteria) | inhibition of condensing enzymes [1] | inhibition of mammalian FASs (mammalian FASs)
1 | C/C=C/C/C=C/CCC(=O)[C@H]1O[C@H]1C(N)=O [cerulenin] | potent inhibitor of FabB & F | bactericidal | – | –
2 | C=C/C(C)=C/[C@@]1(C)SC(=O)C(C)=C1O [thiolactomycin] | – | broad-spectrum antibacterial activity both in vivo and in vitro | specifically inhibit all three condensing enzymes | does not inhibit mammalian FASs
